Measured values reported in patent US6355799B1, “Substituted benzene compounds, process for their preparation, and herbicidal and defoliant compositions containing them” (ISK Americas Incorporated, priority 1997, dated 2002).

Assays:
Type in all cases: in vivo
[1] = tested on: field corn (Zea mays L., var. Dekalb 535, CORN); experiment: Post-emerge test, crop safety; conditions: post-emerge, crop damage rating 0-100 at 14 days after application
How it was run: (§1)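 Compounds in acetone were track-sprayed at 187 l/ha, 15–1000 g ai/ha, onto sandy loam pots. Pre-emerge seeds were sown one day before spraying, with surface watering afterwards. Post-emerge plants were at the 2–3 leaf stage and sprayed with 0.25% v/v non-ionic surfactant. Injury was rated 0–100 at 14 days.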

[2] = tested on: upland rice (Oryza sp., var. Tebonnet, RICE); experiment: Post-emerge test, crop safety; conditions: post-emerge, crop damage rating 0-100 at 14 days after application
How it was run: as §1

[3] = tested on: field corn (Zea mays L., var. Dekalb 535, CORN); experiment: Pre-emerge test, crop safety; conditions: crop damage, pre-emerge, phytotoxicity rating 0-100 at 14 days after application
How it was run: (§2)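 Rating: 0–100 visual injury, 14 DAA. Application: acetone, 187 l/ha, 15–1000 g ai/ha, flat-fan track sprayer with nozzle 40–45 cm above soil or canopy. Post-emerge runs used 0.25% v/v surfactant on 2–3 leaf plants.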

[4] = tested on: upland rice (Oryza sp., var. Tebonnet, RICE); experiment: Pre-emerge test, crop safety; conditions: crop damage, pre-emerge, phytotoxicity rating 0-100 at 14 days after application
How it was run: as §2

[5] = tested on: redroot pigweed (Amaranthus retroflexus, AMARE); experiment: Pre-emerge test, greenhouse herbicide activity screening; conditions: pre-emerge, phytotoxicity rating 0-100 at 14 days after application
How it was run: as §1

[6] = tested on: sicklepod (Cassia obtusifolia, CASOB); experiment: Post-emerge test, greenhouse herbicide activity screening; conditions: post-emerge, phytotoxicity rating 0-100 at 14 days after application
Text: (§3) A standard greenhouse herbicide activity screening system was used to evaluate the herbicidal efficacy and crop safety of these test compounds. Seven broadleaf weed species including redroot pigweed (Amaranthus retroflexus, AMARE, velvetleaf (Abutilon theophrasti, ABUTH), sicklepod (Cassia obtusifolia, CASOB), ivyleaf morningglory (Ipomoea hederacea, IPOHE), lambsquarters (Chenopodium album, CHEAL), common ragweed (Ambrosia artemisizfolia L., AMBEL), and cocklebur (Xanthium strumarium, XANST) were used as test species. Four grass weed species including green foxtail (Setaria viridis, SETVI), barnyardgrass (Echinochloa crus-galli, ECHCG), johnsongrass (Sorghum halepense, SORHA), and large crabgrass (Digitaria sanguinalis, DIGSA) were also used. In addition, three crop species, field corn (Zea mays L., var. Dekalb 535, CORN), soybean (Glycine max L., var. Pella 86, SOY), and is upland rice (Oryza sp., var. Tebonnet, RICE) were included.
(§4) All plants were grown in 10 cm square plastic pots which were filled with a sandy loam soil mix. For pre-emerge tests, seeds were planted one day prior to application of the test compounds. For post-emerge tests, seeds were planted 8-21 days prior to the test to allow emergence and good foliage development prior to application of the test substances. At the time of the post-emerge application, plants of all species were usually at the 2-3 leaf stage of development.
(§5) All test compounds Were dissolved in acetone and applied to the test units in a volume of 187 l /ha. Test materials were applied at rates ranging from 15 g ai/ha to 1000 g ai/ha using a track sprayer equipped with a TJ8001E even flow flat fan spray nozzle. Plants were arranged on a shelf so that the top of the canopy (post-emerge) or top of the soil surface (pre-emerge) was 40-45 cm below the nozzle. Pressurized air was used to force the test solution through the nozzle as it was mechanically advanced (via electrically driven chain drive) over the top of all test plants/pots. This application simulates a typical commercial field herbicide application.
(§6) In the post-emerge test, a commercial non-ionic surfactant was also included (0.25% v/v) to enhance wetting of the leaf surfaces of target plants. Immediately after application, test units of the pre-emerge applications were watered at the soil surface to incorporate the test materials. Subsequently, these test units were bottom-watered. Post-emerge test units were always bottom-watered.
(§7) At 14 days after application of the test materials, phytotoxicity ratings were recorded. A rating scale of 0-100 was used as previously described in Research Methods in Weed Science, 2nd edition, B. Truelove, Ed., Southern Weed Science Society, Auburn University, Auburn, Ala. 1977. Briefly, “0” corresponds to no damage and “100” corresponds to complete death of all plants in the test unit. This scale was used both to determine efficacy against weed species and damage to crop species. Herbicide activity data for various compounds of this invention, which are shown by compound No. in Tables 1-8, are shown in Tables 11 and 12.

[7] = tested on: redroot pigweed (Amaranthus retroflexus, AMARE); experiment: as above; conditions: post-emerge, phytotoxicity rating 0-100 at 14 days after application
Text: as §3, §4, §5, §6, §7

[8] = tested on: green foxtail (Setaria viridis, SETVI); experiment: as above; conditions: post-emerge, phytotoxicity rating 0-100 at 14 days after application
Text: as §3, §4, §5, §6, §7

[9] = tested on: lambsquarters (Chenopodium album, CHEAL); experiment: as above; conditions: post-emerge, phytotoxicity rating 0-100 at 14 days after application
Text: as §3, §4, §5, §6, §7

[10] = tested on: velvetleaf (Abutilon theophrasti, ABUTH); experiment: as above; conditions: post-emerge, phytotoxicity rating 0-100 at 14 days after application
Text: as §3, §4, §5, §6, §7

[11] = tested on: large crabgrass (Digitaria sanguinalis, DIGSA); experiment: as above; conditions: post-emerge, phytotoxicity rating 0-100 at 14 days after application
Text: as §3, §4, §5, §6, §7

[12] = tested on: barnyardgrass (Echinochloa crus-galli, ECHCG); experiment: as above; conditions: post-emerge, phytotoxicity rating 0-100 at 14 days after application
Text: as §3, §4, §5, §6, §7

[13] = tested on: ivyleaf morningglory (Ipomoea hederacea, IPOHE); experiment: as above; conditions: post-emerge, phytotoxicity rating 0-100 at 14 days after application
Text: as §3, §4, §5, §6, §7

[14] = tested on: sicklepod (Cassia obtusifolia, CASOB); experiment: Pre-emerge test, greenhouse herbicide activity screening; conditions: pre-emerge, phytotoxicity rating 0-100 at 14 days after application
Text: as §3, §4, §5, §6, §7

[15] = tested on: green foxtail (Setaria viridis, SETVI); experiment: as above; conditions: pre-emerge, phytotoxicity rating 0-100 at 14 days after application
Text: as §3, §4, §5, §6, §7

[16] = tested on: lambsquarters (Chenopodium album, CHEAL); experiment: as above; conditions: pre-emerge, phytotoxicity rating 0-100 at 14 days after application
Text: as §3, §4, §5, §6, §7

[17] = tested on: velvetleaf (Abutilon theophrasti, ABUTH); experiment: as above; conditions: pre-emerge, phytotoxicity rating 0-100 at 14 days after application
Text: as §3, §4, §5, §6, §7

[18] = tested on: large crabgrass (Digitaria sanguinalis, DIGSA); experiment: as above; conditions: pre-emerge, phytotoxicity rating 0-100 at 14 days after application
Text: as §3, §4, §5, §6, §7

[19] = tested on: barnyardgrass (Echinochloa crus-galli, ECHCG); experiment: as above; conditions: pre-emerge, phytotoxicity rating 0-100 at 14 days after application
Text: as §3, §4, §5, §6, §7

[20] = tested on: ivyleaf morningglory (Ipomoea hederacea, IPOHE); experiment: as above; conditions: pre-emerge, phytotoxicity rating 0-100 at 14 days after application
Text: as §3, §4, §5, §6, §7

Structure (SMILES)	Post-emerge Herbicidal Activity CORN ([1]; 63 g ai/ha)	Post-emerge Herbicidal Activity CORN ([1]; 250 g ai/ha)	Post-emerge Herbicidal Activity RICE ([2]; 63 g ai/ha)	Post-emerge Herbicidal Activity RICE ([2]; 250 g ai/ha)	Pre-emerge Herbicidal Activity CORN ([3]; rate 63 g ai/ha)	Pre-emerge Herbicidal Activity CORN ([3]; rate 250 g ai/ha)	Pre-emerge Herbicidal Activity RICE ([4]; rate 63 g ai/ha)	Pre-emerge Herbicidal Activity RICE ([4]; rate 250 g ai/ha)	Pre-emerge Herbicidal Activity AMARE ([5]; rate 63 g ai/ha)	Pre-emerge Herbicidal Activity AMARE ([5]; rate 250 g ai/ha)	Post-emerge Herbicidal Activity CASOB ([6]; 63 g ai/ha)	Post-emerge Herbicidal Activity CASOB ([6]; 250 g ai/ha)	Post-emerge Herbicidal Activity AMARE ([7]; 63 g ai/ha)	Post-emerge Herbicidal Activity AMARE ([7]; 250 g ai/ha)	Post-emerge Herbicidal Activity SETVI ([8]; 63 g ai/ha)	Post-emerge Herbicidal Activity SETVI ([8]; 250 g ai/ha)	Post-emerge Herbicidal Activity CHEAL ([9]; 63 g ai/ha)	Post-emerge Herbicidal Activity CHEAL ([9]; 250 g ai/ha)	Post-emerge Herbicidal Activity ABUTH ([10]; 63 g ai/ha)	Post-emerge Herbicidal Activity ABUTH ([10]; 250 g ai/ha)	other results
Cc1cc(C)c(COC(=O)Nc2c(C)c(Cl)cc(F)c2-n2c(=O)cc(C(F)(F)F)n(C)c2=O)c(C)c1 [4-69]	5	35	0	40	0	0	10	30	30	80	40	70	100	100	40	80	90	100	100	100	Post-emerge Herbicidal Activity DIGSA ([11]; 63 g ai/ha): 20; Post-emerge Herbicidal Activity DIGSA ([11]; 250 g ai/ha): 50; Post-emerge Herbicidal Activity ECHCG ([12]; 63 g ai/ha): 20; Post-emerge Herbicidal Activity ECHCG ([12]; 250 g ai/ha): 40; Post-emerge Herbicidal Activity IPOHE ([13]; 63 g ai/ha): 70; Post-emerge Herbicidal Activity IPOHE ([13]; 250 g ai/ha): 100; Pre-emerge Herbicidal Activity CASOB ([14]; rate 63 g ai/ha): 0; Pre-emerge Herbicidal Activity CASOB ([14]; rate 250 g ai/ha): 50; Pre-emerge Herbicidal Activity SETVI ([15]; rate 63 g ai/ha): 95; Pre-emerge Herbicidal Activity SETVI ([15]; rate 250 g ai/ha): 100; Pre-emerge Herbicidal Activity CHEAL ([16]; rate 63 g ai/ha): 70; Pre-emerge Herbicidal Activity CHEAL ([16]; rate 250 g ai/ha): 90; Pre-emerge Herbicidal Activity ABUTH ([17]; rate 63 g ai/ha): 80; Pre-emerge Herbicidal Activity ABUTH ([17]; rate 250 g ai/ha): 90; Pre-emerge Herbicidal Activity DIGSA ([18]; rate 63 g ai/ha): 100; Pre-emerge Herbicidal Activity DIGSA ([18]; rate 250 g ai/ha): 100; Pre-emerge Herbicidal Activity ECHCG ([19]; rate 63 g ai/ha): 30; Pre-emerge Herbicidal Activity ECHCG ([19]; rate 250 g ai/ha): 70; Pre-emerge Herbicidal Activity IPOHE ([20]; rate 63 g ai/ha): 0; Pre-emerge Herbicidal Activity IPOHE ([20]; rate 250 g ai/ha): 40
Cc1c(Cl)cc(F)c(-n2c(=O)cc(C(F)(F)F)n(C)c2=O)c1NC(=O)OCc1ccco1 [4-70]	40	90	30	70	90	95	40	70	100	100	60	90	90	100	60	95	90	100	100	100	Post-emerge Herbicidal Activity DIGSA ([11]; 63 g ai/ha): 30; Post-emerge Herbicidal Activity DIGSA ([11]; 250 g ai/ha): 70; Post-emerge Herbicidal Activity ECHCG ([12]; 63 g ai/ha): 40; Post-emerge Herbicidal Activity ECHCG ([12]; 250 g ai/ha): 80; Post-emerge Herbicidal Activity IPOHE ([13]; 63 g ai/ha): 100; Post-emerge Herbicidal Activity IPOHE ([13]; 250 g ai/ha): 100; Pre-emerge Herbicidal Activity CASOB ([14]; rate 63 g ai/ha): 50; Pre-emerge Herbicidal Activity CASOB ([14]; rate 250 g ai/ha): 80; Pre-emerge Herbicidal Activity SETVI ([15]; rate 63 g ai/ha): 60; Pre-emerge Herbicidal Activity SETVI ([15]; rate 250 g ai/ha): 100; Pre-emerge Herbicidal Activity CHEAL ([16]; rate 63 g ai/ha): 100; Pre-emerge Herbicidal Activity CHEAL ([16]; rate 250 g ai/ha): 100; Pre-emerge Herbicidal Activity ABUTH ([17]; rate 63 g ai/ha): 100; Pre-emerge Herbicidal Activity ABUTH ([17]; rate 250 g ai/ha): 100; Pre-emerge Herbicidal Activity DIGSA ([18]; rate 63 g ai/ha): 60; Pre-emerge Herbicidal Activity DIGSA ([18]; rate 250 g ai/ha): 100; Pre-emerge Herbicidal Activity ECHCG ([19]; rate 63 g ai/ha): 40; Pre-emerge Herbicidal Activity ECHCG ([19]; rate 250 g ai/ha): 95; Pre-emerge Herbicidal Activity IPOHE ([20]; rate 63 g ai/ha): 100; Pre-emerge Herbicidal Activity IPOHE ([20]; rate 250 g ai/ha): 100
